Experiments:
[1] = system: Retinal Pigment Epithelium (RPE) of Pig Eyes; experiment: Release of MMPs from RPE of pig eyecups (gelatin zymography); format: cell-based; settings: pig eyecup
Description: Pig whole eyecup preparations of RPE were used in these experiments. Standard buffer for incubations utilised […] supplemented with foetal calf serum and antibiotics. Eyecups were incubated in this basal medium as control and in medium containing ginseng extract. Following a 6-24 hour incubation, the incubating medium was collected and subjected to gelatin zymography to analyse the type and level of MMP species present. In control medium, both pro- and active MMP 2&9 species are released continuously from the RPE (FIG. 7). […] This effect of KRG is conducive for regenerating Bruch's membrane. […]

human Bruch's membrane = experiment: Hydraulic conductivity of Bruch's membrane in open-type Ussing chambers; settings: 24 hours incubation
Description: Bruch's samples were mounted in open-type Ussing chambers and perfused with Tris-HCl buffer. Eluted samples (fluid coming through Bruch's membrane) were collected and measured for fluid transport. Control was perfused with Tris-HCl buffer whilst others were perfused with ginseng fractions for 24 hours.
Transport was tested as described in Example 3, and measured after 24 hours incubation with ginsenosides.
Transport was tested as described in Example 3, and measured after 24 hours incubation with 10% red ginseng extract.

[2] = 6-24 hour incubation, gelatin zymography, Ginseng extract at 10%

In the case of `CC(C)=CCC[C@](C)(O[C@@H]1O[C@H](CO)[C@@H](O)[C@H](O)[C@H]1O)[C@H]1CC[C@]2(C)[C@@H]1[C@H](O)C[C@@H]1[C@@]3(C)CC[C@H](O)C(C)(C)[C@@H]3CC[C@]12C` [Compound K, 20-O-β-d-glucopyranosyl-20(S)-protopanaxadiol], the “Release of active MMP2 from the RPE” value [1, 2] is reported as “consistently increased”, the “Release of pro-MMP2 from the RPE” value [1, 2] is reported as “consistently increased” and the “Release of pro-MMP9 from the RPE” value [1, 2] is reported as “consistently increased”. For the same molecule, the “Effect on hydraulic conductivity of human Bruch's membrane (in words)” value (“Effect on hydraulic conductivity” for short) (human Bruch's membrane; 190 ug/ml) was “increased hydraulic conductivity” and the “Fold change in hydraulic conductivity over basal” value (shortened to “Fold change”) (human Bruch's membrane; 190 ug/ml, 5 donors) was 1.45 ± 0.15.

For `CC(C)=CCC[C@](C)(O[C@@H]1O[C@H](CO[C@@H]2O[C@H](CO)[C@@H](O)[C@H](O)[C@H]2O)[C@@H](O)[C@H](O)[C@H]1O)[C@H]1CC[C@]2(C)[C@@H]1[C@H](O)C[C@@H]1[C@@]3(C)CC[C@H](O[C@@H]4O[C@H](CO)[C@@H](O)[C@H](O)[C@H]4O[C@@H]4O[C@H](CO)[C@@H](O)[C@H](O)[C@H]4O)C(C)(C)[C@@H]3CC[C@]12C` [Rb1], the “Activated HMW1 level” value [1, 2] was “increased activated HMW1 levels”, the “Release of active MMP2 from the RPE” value [1, 2] was “did increase” and the “Release of active MMP9 from the RPE” value [1, 2] was “without effect”. The “Release of pro-MMP2 from the RPE” value [1, 2] was “did increase”, the “Release of pro-MMP9 from the RPE” value [1, 2] was “effective in reducing the level of pro-MMP9” and the “Effect on hydraulic conductivity” value (human Bruch's membrane; 200 ug/ml) was “increased”. The “Fold change” value (human Bruch's membrane; 200 ug/ml, 1 donor) was 1.27.

With `CC(C)=CCC[C@](C)(O[C@@H]1O[C@H](CO)[C@@H](O)[C@H](O)[C@H]1O)[C@H]1CC[C@]2(C)[C@@H]1[C@H](O)C[C@@H]1[C@@]3(C)CC[C@H](O)C(C)(C)[C@@H]3[C@@H](O[C@@H]3O[C@H](CO)[C@@H](O)[C@H](O)[C@H]3O)C[C@]12C` [Rg1] the “Release of pro-MMP9 from the RPE” value [1, 2] was “increased the amount of pro-MMP9”, the “Release of MMPs from the RPE (overall)” value ([1]; FIG. 7) was “without effect” and the “Effect on hydraulic conductivity” value (human Bruch's membrane; 200 ug/ml) was “increased”. The “Fold change” value (human Bruch's membrane; 200 ug/ml, 1 donor) was 1.2.

From patent publication US20140328951A1, “Composition for Preventing and Treating Vision Deterioration and Age-Related Macular Degeneration through Retinal Repair Using Ginseng/Red Ginseng Extracts and Ginsenoside” (GBIOMIX. CO., LTD., priority 2011, published 2014)
